# Literature values as cited in patent US5356784A, “Determination of concentration by affinity titration” (Terrapin Technologies, Inc., priority 1993, dated 1994).
# Tested on: Concanavalin A (ConA)
# Details: ConA with bacterial dextran from strain B-1355-5; materials described by Scott et al. PNAS 1992
row,Compound,inhibition of precipitation of ConA-dextran
1,VGRAFS: peptide identified by screening a phage epitope display library; inhibits Con A-dextran precipitation,inhibit
2,MYWYPY: peptide identified by screening a phage epitope display library; inhibits Con A-dextran precipitation,inhibit
3,"CO[C@H]1O[C@H](CO)[C@@H](O)[C@H](O)[C@@H]1O [MeMan, methyl-alpha-Man]",inhibited in a dosedependent manner
